According to patent US9556183B2, “Substituted pyrazolylpyrazole derivative and use of same as herbicide” (KYOYU AGRI CO., LTD., priority 2013, dated 2017):

Tests used:
Format in all cases: in vivo
Echinochloa crus-galli = test: Paddy herbicidal activity test; details: irrigated paddy pot, treated at 3.5 leaf stage of Echinochloa crus-galli, 30 days
Method: (§1) Rice paddy soil was filled into a 1/10000 are pot followed by the addition of suitable amounts of water and chemical fertilizer, kneading, seeding with Echinochloa crus-galli, Monochoria vaginalis and Scirpus juncoides and maintaining in an irrigated state at a water depth of 3 cm. Wettable powder of Target Compound (I) shown in Table 1 prepared in compliance with the preparation examples were diluted with a suitable amount of water, rice plants in the 2.0 leaf stage were transplanted during 3.5 leaf stage of Echinochloa crus-galli, and treated by dropping in chemical in the prescribed amount per are using a pipette. After treating for 30 days in a glass greenhouse at an average atmospheric temperature of 30° C., the herbicidal efficacy thereof was investigated. Evaluation of herbicidal efficacy was carried out by comparing growth inhibition rate (%) with an untreated group, while evaluation of phytotoxicity was carried out by comparing growth inhibition rate (%) with the state of a complete eradication group, and were evaluated at 11 levels indicated below. [table]

Monochoria vaginalis = test: Paddy herbicidal activity test; details: irrigated paddy pot, 30 days
Method: as §1

Scirpus juncoides = test: Paddy herbicidal activity test; details: irrigated paddy pot, 30 days
Method: as §1

Rice plants = test: Paddy herbicidal activity test, phytotoxicity to transplanted rice; details: rice transplanted at 2.0 leaf stage, 30 days
Method: as §1

SMILES	herbicidal efficacy (growth inhibition rate level) Echinochloa crus-galli (Echinochloa crus-galli; 1g a.i./10a)	herbicidal efficacy (growth inhibition rate level) Echinochloa crus-galli (Echinochloa crus-galli; 5g a.i./10a)	herbicidal efficacy (growth inhibition rate level) Monochoria vaginalis (Monochoria vaginalis; 1g a.i./10a)	herbicidal efficacy (growth inhibition rate level) Monochoria vaginalis (Monochoria vaginalis; 5g a.i./10a)	herbicidal efficacy (growth inhibition rate level) Scirpus juncoides (Scirpus juncoides; 1g a.i./10a)	herbicidal efficacy (growth inhibition rate level) Scirpus juncoides (Scirpus juncoides; 5g a.i./10a)	phytotoxicity (growth inhibition rate level) Rice plants (Rice plants; 1g a.i./10a)	phytotoxicity (growth inhibition rate level) Rice plants (Rice plants; 5g a.i./10a)
CC1CC1CN(C(=O)C(F)(F)F)c1c(C#N)cnn1-c1nn2c(c1Cl)CCCC2 (stereo not drawn) [Compound 13]	9 (9: 90% to less than 100%)	9 (9: 90% to less than 100%)	8 (8: 80% to less than 90%)	8 (8: 80% to less than 90%)	8 (8: 80% to less than 90%)	8 (8: 80% to less than 90%)	0 (0 (exponent): 0% to less than 10% (growth inhibition rate))	1 (1: 10% to less than 20%)
CC(C1CC1)N(C(=O)C(F)(F)F)c1c(C#N)cnn1-c1nn2c(c1Cl)CCCC2 (stereo not drawn) [Compound 14]	8 (8: 80% to less than 90%)	9 (9: 90% to less than 100%)	7 (7: 70% to less than 80%)	7 (7: 70% to less than 80%)	7 (7: 70% to less than 80%)	8 (8: 80% to less than 90%)	0 (0 (exponent): 0% to less than 10% (growth inhibition rate))	0 (0 (exponent): 0% to less than 10% (growth inhibition rate))
O=[N+]([O-])c1cnn(-c2nn3c(c2Cl)CCCC3)c1NCC1CC1 [Compound 114]	9 (9: 90% to less than 100%)	9 (9: 90% to less than 100%)	7 (7: 70% to less than 80%)	8 (8: 80% to less than 90%)	8 (8: 80% to less than 90%)	9 (9: 90% to less than 100%)	0 (0 (exponent): 0% to less than 10% (growth inhibition rate))	0 (0 (exponent): 0% to less than 10% (growth inhibition rate))
O=C(N(CC1CC1)c1c([N+](=O)[O-])cnn1-c1nn2c(c1Cl)CCCC2)C(F)(F)F [Compound 115]	8 (8: 80% to less than 90%)	9 (9: 90% to less than 100%)	8 (8: 80% to less than 90%)	8 (8: 80% to less than 90%)	9 (9: 90% to less than 100%)	8 (8: 80% to less than 90%)	0 (0 (exponent): 0% to less than 10% (growth inhibition rate))	1 (1: 10% to less than 20%)
O=[N+]([O-])c1cnn(-c2nn3c(c2Br)CCCC3)c1NCC1CC1 [Compound 158]	8 (8: 80% to less than 90%)	9 (9: 90% to less than 100%)	7 (7: 70% to less than 80%)	7 (7: 70% to less than 80%)	8 (8: 80% to less than 90%)	9 (9: 90% to less than 100%)	0 (0 (exponent): 0% to less than 10% (growth inhibition rate))	0 (0 (exponent): 0% to less than 10% (growth inhibition rate))
O=C(N(CC1CC1)c1c([N+](=O)[O-])cnn1-c1nn2c(c1Br)CCCC2)C(F)(F)F [Compound 159]	8 (8: 80% to less than 90%)	9 (9: 90% to less than 100%)	7 (7: 70% to less than 80%)	8 (8: 80% to less than 90%)	7 (7: 70% to less than 80%)	8 (8: 80% to less than 90%)	0 (0 (exponent): 0% to less than 10% (growth inhibition rate))	0 (0 (exponent): 0% to less than 10% (growth inhibition rate))
